The source of these data is ChEMBL document CHEMBL4613241, “Disulfide Cleavage in a Dimeric Epipolythiodioxopiperazine Natural Product Diminishes Its Apoptosis-Inducing Effect but Enhances Autophagy in Tumor Cells” (2020).

SMILES strings stand for the structures. Calls of active or inactive are those of the source. The rule behind the calls is not given here.

The test system of test [1] is HepG2. The experiment in a line: Inhibition of colony formation in human HepG2 at 0.1 uM after 2 weeks by trypan blue staining based assay relative to control. The class given is functional. The settings on record: HepG2, 336 h.
Test [2] has as its system HeLa. Description: Inhibition of colony formation in human HeLa at 0.1 uM after 2 weeks by trypan blue staining based assay relative to control. The class given is functional. The following applies: 336 h.
In test [3] the test system is HepG2. Description: Induction of ROS generation in human HepG2 cells at 0.5 uM by DCFH-DA staining based fluorescence assay. The format is functional, cell-based. The settings on record: TDE = time-dependent effect.
For test [4], the system named is T-24. The experiment in a line: Induction of apoptosis in human T24 cells assessed as increase in cleaved PARP1 level at 0.25 to 2 uM after 12 hrs by Western blot analysis. The class given is functional, cell-based. A general note: In western blotting, separated proteins are transferred to a membrane and probed.
In test [5] the test system is HepG2. Description: Induction of autophagy in human HepG2 cells assessed as increase in formation of autophagosomes at 0.5 uM by TEM analysis. The settings on record: TDE = time-dependent effect. The class given is functional, cell-based.
The subject of test [6] is HepG2. The experiment in a line: Induction of apoptosis in human HepG2 cells assessed as increase in cleaved PARP level by measuring ratio of cleaved PARP to total PARP level at 2 uM after 12 hrs by Western blot analysis. The format is functional.
Test [7] concerns HepG2. Description: Antiproliferative activity against human HepG2 cells assessed as reduction in cell viability at 5 uM by MTS assay. The format is functional, cell-based. The settings on record: TDE = time-dependent effect. (In general: Tetrazolium dyes change colour on reduction, which living cells bring about.)
Test [8] deals with HepG2. Description: Inhibition of colony formation in human HepG2 at 1 to 5 uM after 2 weeks by trypan blue staining based assay. The format is functional, cell-based.
The subject of test [9] is HeLa. The experiment in a line: Inhibition of colony formation in human HeLa at 1 to 5 uM after 2 weeks by trypan blue staining based assay. The format is functional, cell-based.
Test [10] relates to HepG2. The experiment in a line: Induction of autophagy in human HepG2 cells assessed as inhibition of lactate generation at 5 uM up to 4 hrs. The class given is functional, cell-based.
In test [11] the test system is HepG2. The experiment in a line: Induction of autophagy in human HepG2 cells assessed as ratio of LC3-2 level to total ERK level at 0.5 uM after 2 hrs in presence of 2-DG by Western blot analysis (reference value: 1.1). The class given is functional.

As a reminder, the inhibition is the drop in the measured response relative to a control, in per cent.

Turning to `CC[C@@]12SS[C@]3(C(=O)N1C)[C@@H](O)C1(C45c6ccccc6N[C@@H]4N4C(=O)[C@]6([C@@H](C)O)SS[C@]4(C(=O)N6C)[C@H]5O)c4ccccc4N[C@@H]1N3C2=O` (stereo partly specified), the inhibition at 0.1 µM in test [1] and in [2] was 100% each time. The Activity entry in test [3] and in test [5] was “Tde” in each case. In addition, in test [4], the outcome was Active. Further, the Ratio in test [6] came out at 1.7.
As to `CCC1(SC)C(=O)N2[C@H]3N(C)c4ccccc4C3(C34c5ccccc5N(C)[C@@H]3N3C(=O)C(SC)([C@@H](C)O)N(C)C(=O)C3(SC)[C@H]4O)[C@H](O)C2(SC)C(=O)N1C` (stereo partly specified), the Activity result in [7] is “Tde”. Moreover, the inhibition result in [8], in test [9] and in [10] was “Active” in each case. Moreover, the Ratio in test [11] is listed as 1.
